Results reported in US20120220624A1, “PYRAZOLO [3,4-B] PYRIDIN-4-ONE KINASE INHIBITORS” (priority 2009, published 2012).

What follows are compounds tested against T1, CDK5-p25 kinase (Homo sapiens, UniProt Q00535) (assay: CDK5-p25 kinase enzymatic assay). Details: 0.3 nM CDK5-p25, 1.5 uM peptide, 5 uM ATP; X marks bin 50 nM-99 nM; read-out: IC50 potency, 50 nM-99 nM.
T1 construct: purchased Invitrogen PV4677
Format: biochemical
Description: CDK5-p25 kinase (Invitrogen PV4677) enzymatic activity was measured using electrophoretic separation and fluorescent detection to monitor phosphorylation of a fluorescently labeled histone H1-derived peptide substrate, FL29 (5-FAM-GGGPATPKKAKKL-CONH2, Caliper #760429)
First, 0.25 uL of serially diluted compound in DMSO at 100× concentration was transferred into each well of a 384-well polystyrene assay plate. To this was added 15 uL of a 1.67× enzyme solution (500 pM enzyme, 1 mM DTT (Sigma D9779), 1× reconstitution buffer with protease inhibitor (Caliper #700329 proprietary formulation)), followed by centrifugation for 1 min at 1000 rpm, and incubation for 5-15 min at room temperature to allow binding of compound to enzyme. To initiate the reaction, 10 uL of substrate/ATP mix (245 mM Hepes pH 7.5, 0.003% Brij 35, 0.004% Tween, 12.75 uM ATP, 3.75 uM FL29 peptide) were added to each well, followed by centrifugation at 1000 rpm for 1 min. The reaction was then incubated at room temperature for 30 min. Final assay conditions were: 0.3 nM CDK5-p25, 1.5 uM peptide, 5 uM ATP, 0.6 mM DTT, 1% DMSO, 98 mM HEPES pH 7.5.
After incubation, reactions were quenched by the addition of 45 uL Caliper termination solution (Caliper proprietary formula), followed by centrifugation at 1000 rpm for 1 min. Extent of reaction (percentage conversion of substrate to phosphorylated product) was then measured using the Caliper EZ II reader. Dose-response curves were created by plotting the inhibition of enzyme activity (normalized relative to vehicle treated and no ATP control reactions) as a function of the log of compound concentration. The curve was analyzed using a four parameter logistical fit to calculate IC50 values.

T1 sequence (Q00535 whole entry): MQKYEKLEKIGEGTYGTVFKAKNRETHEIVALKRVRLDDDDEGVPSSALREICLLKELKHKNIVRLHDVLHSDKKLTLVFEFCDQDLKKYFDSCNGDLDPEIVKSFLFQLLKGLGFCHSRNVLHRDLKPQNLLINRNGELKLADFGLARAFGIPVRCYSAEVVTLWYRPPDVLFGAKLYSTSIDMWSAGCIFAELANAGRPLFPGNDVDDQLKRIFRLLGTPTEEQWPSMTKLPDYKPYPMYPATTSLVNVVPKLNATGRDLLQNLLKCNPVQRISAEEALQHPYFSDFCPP
T1 sequence (Q15078 99-307 partner limits assumed): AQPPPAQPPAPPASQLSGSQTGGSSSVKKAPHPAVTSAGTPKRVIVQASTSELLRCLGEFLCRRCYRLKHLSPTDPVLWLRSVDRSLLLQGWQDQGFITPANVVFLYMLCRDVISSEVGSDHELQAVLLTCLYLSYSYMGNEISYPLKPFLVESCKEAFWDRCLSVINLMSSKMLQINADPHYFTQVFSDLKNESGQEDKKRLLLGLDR

| SMILES | IC50 [nM] |
| --- | --- |
| CC(C)(C)c1ccc(Cc2cc(=O)c3c(C4CCC4)[nH]nc3[nH]2)cc1 [Example 4, 6-(4-tert-butylbenzyl)-3-cyclobutyl-2,7-dihydro-4H-pyrazolo[3,4-b]pyridin-4-one] | 50 to 99 |
| O=c1cc(Cc2ccc(-c3ccccc3)cc2)[nH]c2n[nH]c(C3CCC3)c12 [Example 3, 6-(biphenyl-4-ylmethyl)-3-cyclobutyl-2,7-dihydro-4H-pyrazolo[3,4-b]pyridin-4-one] | 50 to 99 |

Same assay, conditions: 0.3 nM CDK5-p25, 1.5 uM peptide, 5 uM ATP; X marks bin 100 nM-499 nM; read-out: IC50 potency, 100 nM-499 nM

| SMILES | IC50 [nM] |
| --- | --- |
| O=c1cc(Cc2ccccc2-c2ccccc2)[nH]c2n[nH]c(C3CCC3)c12 [Example 5, 6-(biphenyl-2-ylmethyl)-3-cyclobutyl-2,7-dihydro-4H-pyrazolo[3,4-b]pyridin-4-one] | 100 to 499 |
| O=c1cc(Cc2c(F)cccc2Cl)[nH]c2n[nH]c(C3CCC3)c12 [Example 2, 6-(2-chloro-6-fluorobenzyl)-3-cyclobutyl-2,7-dihydro-4H-pyrazolo[3,4-b]pyridin-4-one] | 100 to 499 |
| O=c1cc(CC2CCCCC2)[nH]c2n[nH]c(C3CCC3)c12 [Example 7, 3-cyclobutyl-6-(cyclohexylmethyl)-2,7-dihydro-4H-pyrazolo[3,4-b]pyridin-4-one] | 100 to 499 |

Same assay, conditions: 0.3 nM CDK5-p25, 1.5 uM peptide, 5 uM ATP; X marks bin 500 nM-3 μM; read-out: IC50 potency, 500 nM-3 μM

| SMILES | IC50 [nM] |
| --- | --- |
| O=c1cc(Cc2ccc3ccccc3c2)[nH]c2n[nH]c(C3CC(F)(F)C3)c12 [Example 9, 3-(3,3-difluorocyclobutyl)-6-(naphthalen-2-ylmethyl)-2,7-dihydro-4H-pyrazolo[3,4-b]pyridin-4-one] | 500 to 3000 |
| O=c1cc(Cc2ccc3ccccc3c2)[nH]c2n[nH]c([C@H]3C[C@@H](O)C3)c12 [Example 11, 3-(cis-3-hydroxycyclobutyl)-6-(naphthalen-2-ylmethyl)-2,7-dihydro-4H-pyrazolo[3,4-b]pyridin-4-one] | 500 to 3000 |

Same assay, conditions: 0.3 nM CDK5-p25, 1.5 uM peptide, 5 uM ATP; X marks bin <50 nM; read-out: IC50 potency, <50 nM

| SMILES | IC50 [nM] |
| --- | --- |
| O=c1cc(Cc2ccc3ccccc3c2)[nH]c2n[nH]c(C3CCC3)c12 [Example 1, 3-cyclobutyl-6-(2-naphthylmethyl)-2,7-dihydro-4H-pyrazolo[3,4-b]pyridin-4-one] | < 50 |
| O=c1cc(Cc2cc(F)cc(Cl)c2)[nH]c2n[nH]c(C3CCC3)c12 [Example 8, 6-(3-chloro-5-fluorobenzyl)-3-cyclobutyl-2,7-dihydro-4H-pyrazolo[3,4-b]pyridin-4-one] | < 50 |
| O=C1CC(c2[nH]nc3[nH]c(Cc4ccc5ccccc5c4)cc(=O)c23)C1 [Example 12, 6-(naphthalen-2-ylmethyl)-3-(3-oxocyclobutyl)-2,7-dihydro-4H-pyrazolo[3,4-b]pyridin-4-one] | < 50 |
| O=c1cc(Cc2ccc3ccccc3c2)[nH]c2n[nH]c([C@H]3C[C@H](O)C3)c12 [Example 10, 3-(trans-3-hydroxycyclobutyl)-6-(naphthalen-2-ylmethyl)-2,7-dihydro-4H-pyrazolo[3,4-b]pyridin-4-one] | < 50 |
| O=c1cc(Cc2ccc(Cl)c(Cl)c2)[nH]c2n[nH]c(C3CCC3)c12 [Example 6, 3-cyclobutyl-6-(3,4-dichlorobenzyl)-2,7-dihydro-4H-pyrazolo[3,4-b]pyridin-4-one] | < 50 |
